In patent US6818407B2, “Anti-endotoxic antimicrobial cationic peptides and methods of use therfor” (priority 1998, dated 2004):
Ends that are not written are not given here.

Key:
[1] = Lethal endotoxemia in galactosamine-sensitized mice; format: in vivo, CD-1 mice; settings: peptide 200 μg intraperitoneal within 10 min of 10 μg LPS; 24 hours post injection; 5 mice per group; no peptide 100
Procedure: To confirm this in vivo, endotoxic shock was induced by intraperitoneal injection of 10 μg of E.coli 0111:B4 LPS in phosphate-buffered saline (PBS; pH 7.2) into galactosamine-sensitized 8- to 10- week old female CD-1 mice (5 per group). In experiments involving peptides, 200 μg in 100 μl of sterile water was injected at separate intraperitoneal sites within 10 min of LPS injection. Survival was monitored at 24 hours post injection.

[2] = tested on: E. coli; assay: MIC, broth microdilution assay in polypropylene microtiter trays; format: cell-based; settings: average of three separate experiments
Procedure: (§1) The biological activity of the peptides can be determined by standard methods known to those of skill in the art, such as Aminimal inhibitory concentration (MIC)≅ assay described in the present examples, whereby the lowest concentration at which no change in OD is observed for a given period of time is recorded as MIC. Alternatively, Afractional inhibitory concentration (FIC)≅ is also useful for determination of synergy between the peptides of the invention, or the peptides in combination with known antibiotics. FICs are performed by checkerboard titrations of peptides in one dimension of a microtiter plate, and of antibiotics in the other dimension, for example. The FIC is calculated by looking at the impact of one antibiotic on the MIC of the other and vice versa. […] Preferably, an FIC of less than 0.5 is obtained for synergism. As used herein, FIC can be determined as follows: [formula]
(§2) A method which employed polypropylene microtiter trays in a broth microdilution assay was developed.

[3] = tested on: P. aeruginosa; assay: as above; format: cell-based; settings: average of three separate experiments
Procedure: as §1, §2

[4] = tested on: S. aureus K147; assay: as above; format: cell-based; settings: average of three separate experiments
Procedure: as §1, §2

[5] = tested on: S. aureus; assay: as above; format: cell-based; settings: average of three separate experiments
Procedure: as §1, §2

[6] = tested on: S. epidermis; assay: as above; format: cell-based; settings: average of three separate experiments
Procedure: as §1, §2

[7] = tested on: Pseudomonas aeruginosa strain M2; assay: Protection of neutropenic CD-1 mice challenged with Pseudomonas aeruginosa; format: in vivo; design: Survival post bacterial challenge, surviving mice: reference not given here; settings: for Survival (%) post bacterial challenge: PBS 8
Procedure: CD-1 mice were induced to be neutropenic via 3 intraperitoneal injections of cyclophosphamide ([…]) every another day. Immediately after the third administration of cyclophosphamide, the mice were challenged by intraperitoneal injection of Pseudomonas aeruginosa strain M2 (200-300 organisms/mouse). Cationic peptides (200 µg per mouse=8 mg/kg) in 100 µl buffered citrate were injected intraperitoneally at 30 min (single dose) or 30 min and 16 hrs (double dose) post bacterial challenge, respectively. The data were the average values of 2 individual experiments. PBS was used as a control. […] In general single dose protection studies gave better protection than double dose experiments.

[8] = tested on: Aeromonas salmonicida (As); format: cell-based; settings: Mueller Hinton Broth
Procedure: as §1
(§3) These peptides varied in activity (Table 11), however, the C-terminally capped pleurocidin especially and its N-terminally capped lysine derivative had much better activities against a variety of bacteria including Vibrio anguillarum (Va), Aeromonas salmonicida (As), Staphylococcus epidermidis (C621), Salmonella typhimurium wild type (C587) and phoP phoQ mutant (C610), and Pseudomonas aeruginosa wild type (K799) and outer membrane barrier altered (Z61). The antimicrobial peptide CEME, a fusion peptide made from portions of an insect defensin ceropin A and the bee venom peptide melittin (Piers and Hancock, Mol. Microbiol., 12:951-8, 1994), as well as the known antibiotics polymyxin B and gentamicin were used as controls. Replacing the pleurocidin N-terminus with the dermaseptin N-terminus had no effect. Replacing pleurocidin N-terminus with the ceratoxin N-terminus reduced activity. […] Amidating the C-terminus improved antimicrobial activity. Replacing the pleurocidin C-terminus with the misgurin C-terminus had no effect.
(§4) Bacteria included Vibrio anguillarum (Va), Aeromonas salmonicida (As), Staphylococcus epidermidis (C621), Salmonella typhimurium wild type (C587) and phoP phoQ mutant (C6 10), and Pseudomonas aeruginosa wild type (K799) and outer membrane barrier altered (Z61).

[9] = tested on: Pseudomonas aeruginosa outer membrane barrier altered (Z61); format: cell-based; settings: Mueller Hinton Broth
Procedure: as §1, §3, §4

[10] = tested on: Pseudomonas aeruginosa wild type (K799); format: cell-based; settings: Mueller Hinton Broth
Procedure: as §1, §3, §4

[11] = tested on: Salmonella typhimurium phoP phoQ mutant (C610); format: cell-based; settings: Mueller Hinton Broth
Procedure: as §1, §3, §4

[12] = tested on: Salmonella typhimurium wild type (C587); format: cell-based; settings: Mueller Hinton Broth
Procedure: as §1, §3, §4

[13] = tested on: Staphylococcus epidermidis (C621); format: cell-based; settings: Mueller Hinton Broth
Procedure: as §1, §3, §4

[14] = tested on: Vibrio anguillarum (Va); format: cell-based; settings: Mueller Hinton Broth
Procedure: as §1, §3, §4

Compound	MIC As [8] [µg/mL]	MIC Z61 [9] [µg/mL]	MIC K799 [10] [µg/mL]	MIC C610 [11] [µg/mL]	MIC C587 [12] [µg/mL]	MIC C621 [13] [µg/mL]	MIC Va [14] [µg/mL]	further results
CC[C@H](C)[C@H](NC(=O)CNC(=O)[C@@H](NC(=O)[C@H](CCCCN)NC(=O)[C@H](CCCCN)NC(=O)[C@H](Cc1ccccc1)NC(=O)[C@H](CC(C)C)NC(=O)[C@H](CCCCN)NC(=O)[C@H](Cc1c[nH]c2ccccc12)NC(=O)[C@@H](N)CCCCN)[C@@H](C)CC)C(=O)NCC(=O)N[C@@H](C)C(=O)N[C@H](C(=O)N[C@@H](CC(C)C)C(=O)N[C@@H](CCCCN)C(=O)N[C@H](C(=O)N[C@@H](CC(C)C)C(=O)N[C@H](C(=O)N[C@H](C(=O)NCC(=O)N[C@@H](CC(C)C)C(=O)N1CCC[C@H]1C(=O)N[C@@H](C)C(=O)N[C@@H](CC(C)C)C(=O)N[C@@H](CCCCN)C(=O)N[C@@H](CC(C)C)C(=O)N[C@H](C(=O)N[C@@H](CCCCN)C(=O)O)[C@@H](C)O)[C@@H](C)O)[C@@H](C)O)C(C)C)C(C)C [CEMA, reference compound]								Mortality (%) [1]: 0%
CC[C@H](C)[C@H](NC(=O)[C@H](CC(C)C)NC(=O)[C@H](C)NC(=O)[C@@H]1CCCN1C(=O)[C@H](CC(C)C)NC(=O)CNC(=O)[C@@H](NC(=O)[C@@H](NC(=O)[C@H](CC(C)C)NC(=O)[C@@H](NC(=O)[C@H](CCCCN)NC(=O)[C@H](CCCCN)NC(=O)[C@@H](NC(=O)[C@H](C)NC(=O)[C@@H](NC(=O)[C@@H](NC(=O)[C@H](CC(C)C)NC(=O)[C@H](CCCCN)NC(=O)[C@H](CCCCN)NC(=O)[C@@H](NC(=O)[C@H](Cc1ccccc1)NC(=O)[C@H](CO)NC(=O)[C@H](CCCCN)NC(=O)[C@H](Cc1c[nH]c2ccccc12)NC(=O)[C@@H](N)CCCCN)[C@@H](C)CC)[C@@H](C)O)[C@@H](C)O)C(C)C)C(C)C)[C@@H](C)O)[C@@H](C)O)C(=O)N[C@@H](CO)C(=O)O [CP-29, reference compound]								MIC E. coli [2]: 2 µg/mL; MIC P. aeruginosa [3]: 6 µg/mL; MIC S. aureus K147 [4]: 11 µg/mL; MIC S. aureus [5]: 19 µg/mL; MIC S. epidermis [6]: 5 µg/mL; Survival post bacterial challenge, surviving mice ([7]; single dose (200 μg per mouse i.p. at 30 min), 16 hr): 8; Survival post bacterial challenge, surviving mice ([7]; single dose, 24 hr): 8; Survival post bacterial challenge, surviving mice ([7]; single dose, 41 hr): 7; Survival post bacterial challenge, surviving mice ([7]; single dose, 48 hr): 6; Survival post bacterial challenge, surviving mice ([7]; single dose, 64 hr): 4; Survival (%) post bacterial challenge ([7]; single dose, 64 hr): 50%; Survival post bacterial challenge, surviving mice ([7]; single dose, 72 hr): 4; Survival (%) post bacterial challenge ([7]; single dose, 72 hr): 50%; Survival post bacterial challenge, surviving mice ([7]; single dose, 96 hr): 3; Survival (%) post bacterial challenge ([7]; single dose, 96 hr): 37%
ALWKTMLKKAAHVGKHVGKAALTHYL-NH2 [P-DER]	1	8	16	0.5	4	4	4	
KGWGSFFKKAAHVGKHVGKAALTHYL [Peptide P-1]	2	8	32	<0.5	16	64	16	
KGWGSFFKKAAHVGKHVGKAALTHYL-NH2 [Peptide P-1-CN]	1	2	8	<0.5	2	2	2	
RQRVEELSKFSKKGAAARRRK [Peptide M-0, reference compound]	>64	>64	>64	>64	>64	>64	>64	
SIGSAFKKAAHVGKHVGKAALGAAARRRK [CER-M]	32	64	>64	8	>64	>64	>64	
SIGSAFKKAAHVGKHVGKAALTHYL-NH2 [P-CER]	8	>64	>64	2	>64	>64	64	
gentamicin [reference compound]	<0.5	<0.5	<0.5	<0.5	<0.5	16	1	
polymyxin B [reference compound]	<0.5	<0.5	<0.5	<0.5	<0.5	16	16	
